The values that follow come from patent US8853424B2 (Japan Science and Technology Agency, priority 2008, dated 2014).

The test system of assay [1] is transglutaminase (TGase). Kind of assay: Measurement of TG (TGase inhibitory activity, monodansyl cadaverine / N,N-dimethylcasein fluorescence, FDSS 3000). Format: biochemical. The procedure, abridged:
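Compound (1 μL of 10 mM stock) added to 0.1 mL reaction: 100 mM HEPES-NaOH pH 7.5, 1 mM CaCl2, 20 μM monodansyl cadaverine, 0.05 mg/mL N,N-dimethylcasein, 5 μg/mL TGase. Rate of fluorescence change at 340 nm measured; DMSO control set to 100; TG50 is the concentration halving activity.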

The test system of assay [2] is Truncated N-terminal huntington 150 Q-EGFP-Neuron 2a cells. Description: Measurement of x-Fold (polyglutamine aggregation inhibitory activity). Format: cell-based. The procedure: In the present invention, the polyglutamine aggregation inhibitory activity (x-Fold) can be measured, for example, by the method described in the Example.
The number of the aggregated cells, and the total number of cells were counted by Array Scan V T1 (manufactured by Cellomics, Pittuburg, USA), and the ratio of the aggregated cells to the total number of cells was determined (x-Fold). […]

Where [3] appears, read: TGase activity with compound (10 mM, 1 μL in 0.1 ml enzyme reaction solution), DMSO control taken as 100.
Where [4] appears, read: TGase inhibitory activity value, Table 1.
[5] abbreviates: polyglutamine aggregation inhibitory activity, Table 1.
The mark [6] stands for this setting: ratio of aggregated cells to total number of cells, compound 20 μM, 20 hr, almost 1 without compound, smaller = stronger inhibition.

On to `N#Cc1cccc(B(O)c2cccc(C#N)c2)c1` [Example 306, 3,3′-di(cyano-phenyl)borinic acid], for which the “TGase activity remaining (% of DMSO control = 100)” value in assay [1] (setting [3]) and in assay [1] (setting [4]) was 90 throughout. The x-Fold in assay [2] (setting [5]) and in assay [2] (setting [6]) was 0.98 in each case.

Consider `COc1ccc(B(O)c2cccc(COCc3cccc(B(O)c4ccc(OC)cc4)c3)c2)cc1` [Example 328, bis(3-(4-methoxyphenylhydroxyboryl)benzyl)ether], for which the “TGase activity remaining (% of DMSO control = 100)” value in assay [1] (setting [3]) came to 100. For the same compound, the x-Fold in assay [2] (setting [6]) was found to be 1.04.

On to `OB(c1ccccc1)c1cccc(COCc2ccccc2B(O)c2ccccc2)c1` [Example 330, (2-(phenylhydroxyboryl)benzyl)(3-(phenylhydroxyboryl)benzyl)ether], for which the “TGase activity remaining (% of DMSO control = 100)” value in assay [1] (setting [3]) worked out at 89; in assay [1] (TGase inhibitory activity value, Table 1, listed as 655), 89. For the same compound, the x-Fold in assay [2] (polyglutamine aggregation inhibitory activity, Table 1, listed as 655) was 0.90; in assay [2] (setting [6]), 0.90.

As for `NCCOB(c1ccccc1)c1ccc(COCc2ccccc2B(OCCN)c2ccccc2)cc1` [Example 335, (2-(phenylaminoethoxyboryl)benzyl) (4-(phenylaminoethoxyboryl)benzyl)ether], the “TGase activity remaining (% of DMSO control = 100)” value in assay [1] (setting [3]) and in assay [1] (setting [4]) was 91 each time. The x-Fold in assay [2] (setting [5]) and in assay [2] (setting [6]) was 1.02 in each case.

Regarding `OB(c1ccc(F)cc1)c1cccc(COCc2cccc(B(O)c3ccc(F)cc3)c2)c1` [Example 336, bis(3-(4-fluorophenylhydroxyboryl)benzyl)ether], the “TGase activity remaining (% of DMSO control = 100)” value in assay [1] (setting [3]) and in assay [1] (setting [4]) was 101 throughout. The x-Fold in assay [2] (setting [5]) and in assay [2] (setting [6]) was 1.02 throughout.

Take `Fc1ccc(NCCOBc2cccc(COCc3cccc(BOCCNc4ccc(F)cc4)c3)c2)cc1` [Example 337, bis(3-(4-fluorophenylaminoethoxyboryl)benzyl)ether]: the “TGase activity remaining (% of DMSO control = 100)” value in assay [1] (setting [3]) and in assay [1] (setting [4]) was 102 throughout. Further, the x-Fold in assay [2] (setting [5]) and in assay [2] (setting [6]) was 0.98 in each case.

Consider `Cc1cc(B(O)c2ccc(COCc3ccc(B(O)c4ccc(Cl)c(C)c4)cc3)cc2)ccc1Cl` [Example 338, bis(4-(4-chloro-3-methyl-phenyl)hydroxyborylbenzyl)ether], for which the “TGase activity remaining (% of DMSO control = 100)” value in assay [1] (setting [3]) came out at 110; in assay [1] (TGase inhibitory activity value, Table 1, listed as 693), 110. The x-Fold in assay [2] (polyglutamine aggregation inhibitory activity, Table 1, listed as 693) is given as 0.83; in assay [2] (setting [6]), 0.83.

For `Cc1cc(B(OCCN)c2ccc(COCc3ccc(B(OCCN)c4ccc(Cl)c(C)c4)cc3)cc2)ccc1Cl` [Example 339], the “TGase activity remaining (% of DMSO control = 100)” value in assay [1] (setting [3]) and in assay [1] (setting [4]) was 115 in each case. Also, the x-Fold in assay [2] (setting [5]) and in assay [2] (setting [6]) was 0.91 each time.

For `Cc1ccc(B(O)c2ccc(COCc3cccc(B(O)c4ccc(C)c(Cl)c4)c3)cc2)cc1Cl` [Example 341, (3-(3-chloro-4-methylphenylhydroxyboryl)benzyl)(4-(3-chloro-4-methylphenylhydroxyboryl)benzyl)ether], the “TGase activity remaining (% of DMSO control = 100)” value in assay [1] (setting [3]) stood at 107. Further, in assay [2] (setting [6]), the x-Fold worked out at 1.04.

For the compound `OB(c1ccc(COCc2cccc(B(O)c3cc(F)c(F)c(F)c3)c2)cc1)c1cc(F)c(F)c(F)c1` [Example 342, (3-(3′,4′,5′-trifluorophenylhydroxyboryl)benzyl)(4-(3′,4′,5′-trifluorophenylhydroxyboryl)benzyl)ether], the “TGase activity remaining (% of DMSO control = 100)” value in assay [1] (setting [3]) and in assay [1] (setting [4]) was 114 each time. Besides, the x-Fold in assay [2] (setting [5]) and in assay [2] (setting [6]) was 1.02 in each case.

`COc1ccc(NCCOBc2cccc(COCc3cccc(BOCCNc4ccc(OC)cc4)c3)c2)cc1` [Example 343, bis(3-(4-methoxyphenylaminoethoxyboryl)benzyl)ether]: the “TGase activity remaining (% of DMSO control = 100)” value in assay [1] (setting [3]) and in assay [1] (setting [4]) was 55 throughout. Also, the x-Fold in assay [2] (setting [5]) and in assay [2] (setting [6]) was 1.02 throughout.

On to `Cc1cc(B(O)c2cccc(COCc3ccccc3B(O)c3ccc(Cl)c(C)c3)c2)ccc1Cl` [Example 344, (3-(4-chloro-3-methylphenylhydroxyboryl)benzyl)(2-(4-chloro-3-methylphenylhydroxyboryl)benzyl)ether], for which the “TGase activity remaining (% of DMSO control = 100)” value in assay [1] (setting [3]) and in assay [1] (setting [4]) was 91 each time. For the same compound, the x-Fold in assay [2] (setting [5]) and in assay [2] (setting [6]) was 0.93 each time.

For `N#Cc1ccc(B(O)c2cccc(COCc3cccc(B(O)c4ccc(C#N)cc4)c3)c2)cc1` [Example 345, bis(3-(4-cyanophenylhydroxyboryl)benzyl)ether], the “TGase activity remaining (% of DMSO control = 100)” value in assay [1] (setting [3]) and in assay [1] (setting [4]) was 95 throughout. Also, the x-Fold in assay [2] (setting [5]) and in assay [2] (setting [6]) was 0.92 throughout.

As to `OB(c1cccc(COCc2cccc(B(O)c3cccc4ccccc34)c2)c1)c1cccc2ccccc12` [Example 347, bis(3-(1′-naphthylhydroxyboryl)benzyl)ether], the “TGase activity remaining (% of DMSO control = 100)” value in assay [1] (setting [3]) amounted to 104. Moreover, the x-Fold in assay [2] (setting [6]) was found to be 0.90.

As for `COc1ccc(F)cc1B(O)c1ccc(COCc2ccc(B(O)c3cc(F)ccc3OC)cc2)cc1` [Example 349, bis(4-(2-methoxy-5-fluorophenylhydroxyboryl)benzyl)ether], the “TGase activity remaining (% of DMSO control = 100)” value in assay [1] (setting [3]) and in assay [1] (setting [4]) was 104 each time. Also, the x-Fold in assay [2] (setting [5]) and in assay [2] (setting [6]) was 0.80 each time.

Consider `Cc1cc(B(OCCN)c2cccc(COCc3ccccc3B(OCCN)c3ccc(Cl)c(C)c3)c2)ccc1Cl` [Example 351], for which the “TGase activity remaining (% of DMSO control = 100)” value in assay [1] (setting [3]) and in assay [1] (setting [4]) was 103 in each case. The x-Fold in assay [2] (setting [5]) and in assay [2] (setting [6]) was 1.00 in each case.

In the case of `OB(c1ccc(COCc2ccc(B(O)c3ccc(F)c(F)c3)cc2)cc1)c1ccc(F)c(F)c1` [Example 352, bis(4-(3,4-difluorophenylhydroxyboryl)benzyl)ether], the “TGase activity remaining (% of DMSO control = 100)” value in assay [1] (setting [3]) and in assay [1] (setting [4]) was 97 throughout. The x-Fold in assay [2] (setting [5]) and in assay [2] (setting [6]) was 1.02 in each case.

On to `NCCOB(c1ccc(COCc2cccc(B(OCCN)c3cc(F)c(F)c(F)c3)c2)cc1)c1cc(F)c(F)c(F)c1` [Example 354, (3-(3′,4′,5′-trifluorophenylaminoethoxyboryl)benzyl)(4-(3′,4′,5′-trifluorophenylaminoethoxyboryl)benzyl)ether], for which the “TGase activity remaining (% of DMSO control = 100)” value in assay [1] (setting [3]) and in assay [1] (setting [4]) was 113 throughout. Besides, the x-Fold in assay [2] (setting [5]) and in assay [2] (setting [6]) was 1.09 throughout.

For the compound `NCCOB(c1ccccc1)c1ccc(-c2ccc(B(OCCN)c3ccccc3)s2)s1` [Example 356, 5,5′-(phenylaminoethoxyboryl)-2,2′-dithiophene], the “TGase activity remaining (% of DMSO control = 100)” value in assay [1] (setting [3]) and in assay [1] (setting [4]) was 51 each time. The x-Fold in assay [2] (setting [5]) and in assay [2] (setting [6]) was 1.06 in each case.

For `c1ccc(B(OCCN2CCN(CCOB(c3ccccc3)c3ccccc3)CC2)c2ccccc2)cc1` [Example 356], in assay [1] (setting [4]), the “TGase activity remaining (% of DMSO control = 100)” value is 126. In assay [2] (setting [5]), this compound showed a x-Fold of 0.94.

Take `Cc1cc(B(OCCN)c2ccccc2)cc(B(OCCN)c2ccccc2)c1` [Example 357, 3,5-di(phenylaminoethoxyboryl)toluene]: the “TGase activity remaining (% of DMSO control = 100)” value in assay [1] (setting [3]) and in assay [1] (setting [4]) was 89 throughout. Also, the x-Fold in assay [2] (setting [5]) and in assay [2] (setting [6]) was 1.03 each time.

As for `Cc1cc(B(O)c2ccccc2)ccc1B(O)c1ccccc1` [Example 358, 2,5-di(phenylhydroxyboryl)toluene], the “TGase activity remaining (% of DMSO control = 100)” value in assay [1] (setting [3]) and in assay [1] (setting [4]) was 112 in each case. The x-Fold in assay [2] (setting [5]) and in assay [2] (setting [6]) was 0.91 in each case.

Turning to `OB(c1ccccc1)c1ccc2ccccc2c1-c1c(B(O)c2ccccc2)ccc2ccccc12` [Example 359, 2,2′-di(phenylhydroxyboryl)-1,1′-binaphthyl], the “TGase activity remaining (% of DMSO control = 100)” value in assay [1] (setting [3]) and in assay [1] (setting [4]) was 139 in each case. The x-Fold in assay [2] (setting [5]) and in assay [2] (setting [6]) was 0.96 in each case.

In the case of `NCCOB(c1ccccc1)c1ccc2ccccc2c1-c1c(B(OCCN)c2ccccc2)ccc2ccccc12` [Example 360, 2,2′-di(phenylaminoethoxyboryl)-1,1′-binaphthyl], the “TGase activity remaining (% of DMSO control = 100)” value in assay [1] (setting [3]) and in assay [1] (setting [4]) was 88 each time. In addition, the x-Fold in assay [2] (setting [5]) and in assay [2] (setting [6]) was 1.05 throughout.

For the compound `Cc1ccc(NCCOBc2ccc(COCc3ccc(BOCCNc4ccc(C)cc4)cc3)cc2)cc1` [Example 362, bis(4-(4-methylphenylaminoethoxyboryl)benzyl)ether], the “TGase activity remaining (% of DMSO control = 100)” value in assay [1] (setting [3]) and in assay [1] (setting [4]) was 108 throughout. Also, the x-Fold in assay [2] (setting [5]) and in assay [2] (setting [6]) was 1.08 each time.
